Like-named read-outs stand apart in the source and are kept apart here.
Key:
METTL3/METTL14 = METTL3/METTL14 (Homo sapiens, UniProt Q86U44); test: METTL3-14 Standard Enzyme Assay (METTL3 biochemical assay)
Outline: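 Tritium transfer from ³H-SAM (100 nM) to biotinylated RNA (100 nM) captured on streptavidin flashplates and counted by scintillation. Enzyme complex (2.5 nM) with compound, 5 min preincubation, 30 min reaction at ambient temperature, HEPES pH 7.5 buffer, stopped by excess unlabeled SAM.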

PRMT5-MEP50 = PRMT5-MEP50 (Homo sapiens, UniProt O14744); test: PRMT5 Assay (PRMT5 biochemical assay)
Sequence of PRMT5-MEP50 (O14744 whole entry): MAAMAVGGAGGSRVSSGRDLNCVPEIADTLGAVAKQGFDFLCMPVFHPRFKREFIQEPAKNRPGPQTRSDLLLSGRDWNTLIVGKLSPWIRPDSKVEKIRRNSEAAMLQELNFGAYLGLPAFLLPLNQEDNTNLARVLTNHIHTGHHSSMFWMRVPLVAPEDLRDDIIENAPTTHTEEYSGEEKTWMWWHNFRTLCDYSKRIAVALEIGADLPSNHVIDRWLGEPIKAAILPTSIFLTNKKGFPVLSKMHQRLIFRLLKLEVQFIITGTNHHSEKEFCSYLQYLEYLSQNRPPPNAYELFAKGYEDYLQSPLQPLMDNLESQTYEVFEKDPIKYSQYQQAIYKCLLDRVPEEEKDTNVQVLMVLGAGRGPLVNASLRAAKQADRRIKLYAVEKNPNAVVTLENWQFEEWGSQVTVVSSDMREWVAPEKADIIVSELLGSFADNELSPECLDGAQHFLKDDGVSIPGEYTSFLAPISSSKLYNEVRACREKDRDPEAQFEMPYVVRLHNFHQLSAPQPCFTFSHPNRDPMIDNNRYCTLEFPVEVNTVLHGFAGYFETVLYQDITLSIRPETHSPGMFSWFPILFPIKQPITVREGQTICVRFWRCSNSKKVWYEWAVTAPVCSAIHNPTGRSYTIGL
Sequence of PRMT5-MEP50 (Q9BQA1 whole entry partner): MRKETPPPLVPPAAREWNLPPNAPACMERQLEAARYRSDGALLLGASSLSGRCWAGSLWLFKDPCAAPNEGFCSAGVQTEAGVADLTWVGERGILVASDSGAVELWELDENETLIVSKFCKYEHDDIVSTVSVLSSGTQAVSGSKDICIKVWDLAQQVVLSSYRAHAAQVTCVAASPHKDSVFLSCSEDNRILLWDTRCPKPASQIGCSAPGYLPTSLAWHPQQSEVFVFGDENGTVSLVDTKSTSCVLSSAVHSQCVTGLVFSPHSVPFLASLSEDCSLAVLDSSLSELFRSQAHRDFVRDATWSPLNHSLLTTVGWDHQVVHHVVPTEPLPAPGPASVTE
Outline: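 Radiometric methyltransferase read-out: after 60 min reaction, excess unlabelled SAM (15 μM) stops turnover and biotinylated H4 peptide (100 nM) carrying 3H-methyl from 250 nM 3H-SAM is captured on streptavidin flashplates (2 h, 25° C) for scintillation counting. Enzyme, 2.5 nM PRMT5-MEP50, was preincubated 5 min with compound in pH 8.0 Tris buffer with DTT and Tween.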

[1] = tested on: m6A in cellular mRNA of MOLM-13 cells; test: m6A-mRNA LC-MS/MS Assay (m6A cellular assay); format: cell-based; conditions: Homo sapiens
Experimental: Cells were harvested by centrifugation followed by mRNA extraction using DIRECT Dynabeads mRNA DIRECT kit (Life Technologies). mRNA was quantified on NanoDrop spectrophotometer (Thermo Fisher Scientific) and digested into single nucleosides using Nucleoside Digestion Mix (New England Biolabs). […] Quantification is performed in comparison with the standard curve, obtained from pure nucleoside standards (Selleck Chemicals) running with the same batch of samples. Percentage m^6A in cellular mRNA is calculated as 100*(m^6A/A).

MOLM-13 cells [2] = test: MOLM-13 48 Hour Cell Proliferation Assay; format: cell-based; conditions: Homo sapiens
Outline: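 IC50 derived by 4-parameter logistic regression of CellTiter-Glo luminescence, scaled between DMSO (0% death) and staurosporine (100% death) controls. Compounds applied for 48 h at 37 °C as 10-point, 4-fold dilutions, 0.25% DMSO final, to MOLM-13 cells pre-seeded overnight in RPMI 1640 plus 10% FBS.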

MOLM-13 cells [3] = test: MOLM-13 96 Hour Cell Proliferation Assay; format: cell-based; conditions: Homo sapiens
Outline: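 MOLM-13 cells in RPMI 1640 with 10% FBS were plated overnight at 37 °C, then exposed to compound dilutions at 0.25% DMSO final for 96 h. Viability was read by CellTiter-Glo luminescence, normalised to staurosporine (100% death) and DMSO (0% death) controls, and IC50 was fitted by 4-parameter logistic regression.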

METTL1/WDR4 = METTL1/WDR4 (Homo sapiens, UniProt Q9UBP6); test: METTL1 Assay (METTL1 biochemical assay)
Sequence of METTL1/WDR4 (Q9UBP6 whole entry, species assumed): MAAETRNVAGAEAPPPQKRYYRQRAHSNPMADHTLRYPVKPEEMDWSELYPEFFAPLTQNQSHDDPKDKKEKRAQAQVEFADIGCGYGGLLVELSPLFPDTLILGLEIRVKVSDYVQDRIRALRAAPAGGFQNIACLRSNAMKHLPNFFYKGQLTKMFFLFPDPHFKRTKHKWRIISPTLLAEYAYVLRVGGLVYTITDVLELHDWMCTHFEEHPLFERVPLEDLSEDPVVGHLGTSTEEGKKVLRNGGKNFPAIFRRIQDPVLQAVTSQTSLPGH
Sequence of METTL1/WDR4 (P57081 whole entry partner, species assumed): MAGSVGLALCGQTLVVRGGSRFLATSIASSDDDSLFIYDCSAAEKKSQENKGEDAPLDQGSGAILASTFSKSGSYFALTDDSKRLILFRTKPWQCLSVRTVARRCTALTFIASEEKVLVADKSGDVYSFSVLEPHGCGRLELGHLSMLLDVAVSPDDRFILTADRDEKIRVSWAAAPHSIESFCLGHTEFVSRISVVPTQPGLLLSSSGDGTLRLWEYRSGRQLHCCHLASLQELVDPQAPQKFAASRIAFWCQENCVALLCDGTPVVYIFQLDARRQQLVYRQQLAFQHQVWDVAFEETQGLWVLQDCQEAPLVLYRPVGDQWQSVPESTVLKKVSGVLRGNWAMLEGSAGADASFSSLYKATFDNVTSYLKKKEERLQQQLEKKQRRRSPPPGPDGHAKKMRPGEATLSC
Outline: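 Radiometric methyltransfer by METTL1/WDR4 (6.25 nM f.c., 5 min preincubation) at ambient temperature in HEPES pH 7.5, KCl, MgCl2, DTT; started with 25 nM 3′-biotinylated RNA and 60 nM 3H-SAM, run 20 min, quenched with 15 μM cold SAM. Product captured on streptavidin flashplates (2 h, 25° C), counted by scintillation.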

[4] = read-out: METTL3 IC50, METTL3 biochemical assay
[5] = read-out: PRMT5 IC50, PRMT5 biochemical assay
[6] = METTL1 biochemical assay; read-out: METTL1 IC50
[7] = METTL3 biochemical assay, read-out: METTL3 IC50
[8] = read-out: METTL1 IC50; METTL1 biochemical assay
[9] = PRMT5 biochemical assay, read-out: PRMT5 IC50

Sequence of METTL3/METTL14 (Q86U44 whole entry, species assumed): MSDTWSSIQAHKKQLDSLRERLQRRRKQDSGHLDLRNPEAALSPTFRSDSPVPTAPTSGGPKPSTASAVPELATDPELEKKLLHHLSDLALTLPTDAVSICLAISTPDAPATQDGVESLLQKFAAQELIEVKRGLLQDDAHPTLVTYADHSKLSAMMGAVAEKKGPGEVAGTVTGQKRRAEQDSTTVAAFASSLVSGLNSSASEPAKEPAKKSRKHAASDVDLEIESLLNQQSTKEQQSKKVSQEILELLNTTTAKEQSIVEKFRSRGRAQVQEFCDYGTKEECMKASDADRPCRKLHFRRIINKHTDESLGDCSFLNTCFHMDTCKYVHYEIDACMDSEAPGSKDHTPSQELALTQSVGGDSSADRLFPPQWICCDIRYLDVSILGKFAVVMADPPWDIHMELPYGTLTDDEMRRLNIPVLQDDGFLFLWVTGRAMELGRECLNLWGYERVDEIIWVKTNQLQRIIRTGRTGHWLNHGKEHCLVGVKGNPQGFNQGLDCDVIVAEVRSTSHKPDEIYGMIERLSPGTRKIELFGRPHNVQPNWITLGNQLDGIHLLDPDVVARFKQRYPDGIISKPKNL
Sequence of METTL3/METTL14 (Q9HCE5 whole entry partner, species assumed): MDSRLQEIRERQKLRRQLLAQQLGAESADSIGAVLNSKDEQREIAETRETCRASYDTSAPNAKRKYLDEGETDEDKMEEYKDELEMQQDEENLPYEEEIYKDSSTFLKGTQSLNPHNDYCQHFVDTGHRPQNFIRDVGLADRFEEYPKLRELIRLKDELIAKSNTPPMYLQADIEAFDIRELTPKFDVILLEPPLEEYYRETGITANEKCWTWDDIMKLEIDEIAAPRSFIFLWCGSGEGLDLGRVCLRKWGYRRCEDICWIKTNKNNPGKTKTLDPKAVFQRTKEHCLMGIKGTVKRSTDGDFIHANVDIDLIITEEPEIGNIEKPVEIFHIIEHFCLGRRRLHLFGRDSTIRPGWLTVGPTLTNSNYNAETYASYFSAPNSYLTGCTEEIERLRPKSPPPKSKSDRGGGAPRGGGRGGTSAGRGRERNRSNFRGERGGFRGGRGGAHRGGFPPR

| SMILES | IC50 (METTL3/METTL14; [4]) [nM] | IC50 (PRMT5-MEP50; [5]) [nM] | IC50 ([1]; MOLM-13, read-out: m^6A IC50) [nM] | IC50 (MOLM-13 cells [2]) [µM] | IC50 (MOLM-13 cells [3]) [nM] | IC50 (METTL1/WDR4; [6]) [nM] | IC50 (METTL3/METTL14; [7]) [nM] | IC50 (METTL1/WDR4; [8]) [nM] | IC50 (PRMT5-MEP50; [9]) [nM] | IC50 (MOLM-13 cells [3]; MOLM-13, 96 h) [nM] | IC50 (METTL3/METTL14) [nM] | IC50 (PRMT5-MEP50) [nM] | IC50 ([1]; MOLM-13, m6A cellular assay, read-out: m^6A IC50) [nM] |
| --- | --- | --- | --- | --- | --- | --- | --- | --- | --- | --- | --- | --- | --- |
| CNc1ccc2ccc(OC[C@H]3O[C@@H](n4cc(-c5ncco5)c5c(N)ncnc54)[C@@H](F)[C@@H]3O)cc2n1 [I-150] | < 10 | 10 to 100 | < 1000 | < 1 | < 1000 | – | – | – | – | – | – | – | – |
| CNc1ccc2ccc(OC[C@H]3O[C@@H](n4cc(-c5ccccn5)c5c(N)ncnc54)[C@@H](F)[C@@H]3O)cc2n1 [I-9] | < 10 | 10 to 100 | 1000 to 10000 | – | – | > 1000 | – | – | – | – | – | – | – |
| CN(C)c1ccc2ccc(OC[C@H]3O[C@@H](n4ccc5c(N)ncnc54)[C@H](O)[C@@H]3O)cc2n1 [I-78] | – | – | > 10000 | > 10 | – | – | 10 to 100 | > 1000 | 10 to 100 | 1000 to 10000 | – | – | – |
| Nc1ncnc2c1c(-n1cccn1)cn2[C@@H]1O[C@H](COc2ccc3ccc(N4CCC4)nc3c2)[C@@H](O)[C@@H]1F [I-222] | – | – | < 1000 | < 1 | < 1000 | – | – | – | – | – | < 10 | > 1000 | – |
| CNc1ccc2ccc(OC[C@H]3O[C@@H](n4cc(-c5ccn(C)n5)c5c(N)ncnc54)[C@H](O)[C@@H]3O)cc2n1 [I-6] | < 10 | < 10 | < 1000 | – | – | > 1000 | – | – | – | – | – | – | – |
| CNc1ccc2ccc(CC[C@H]3C[C@@H](n4cc(C5CCCC5)c5c(N)ncnc54)[C@H](O)[C@@H]3O)cc2n1 [I-55] | – | – | 1000 to 10000 | 1 to 10 | – | – | < 10 | > 1000 | < 10 | < 1000 | – | – | – |
| CNc1ccc2ccc(OC[C@H]3O[C@@H](n4cc(-c5ccc(C)o5)c5c(N)ncnc54)[C@@H](F)[C@@H]3O)cc2n1 [I-148] | < 10 | 100 to 1000 | < 1000 | < 1 | – | > 1000 | – | – | – | < 1000 | – | – | – |
| Cc1ccn(-c2cn([C@@H]3O[C@H](COc4ccc5ccc(N6CCC6)nc5c4)[C@@H](O)[C@@H]3F)c3ncnc(N)c23)n1 [I-218] | – | – | 1000 to 10000 | – | 1000 to 10000 | – | – | – | – | – | < 10 | > 1000 | – |
| CCNc1ccc2ccc(OC[C@H]3O[C@@H](n4cc(C5CCCC5)c5c(N)ncnc54)[C@H](O)[C@@H]3O)cc2n1 [I-8] | – | – | < 1000 | – | – | – | < 10 | > 1000 | < 10 | – | – | – | – |
| CN(C)c1ccc2ccc(CC[C@H]3C[C@@H](n4ccc5c(N)ncnc54)[C@H](O)[C@@H]3O)cc2n1 [I-98] | – | – | > 10000 | > 10 | – | – | 10 to 100 | > 1000 | 10 to 100 | 1000 to 10000 | – | – | – |
| CNc1ccc2ccc(OC[C@H]3O[C@@H](n4cc([C@@H]5CCCO5)c5c(N)ncnc54)[C@@H](F)[C@@H]3O)cc2n1 [I-152] | – | – | < 1000 | 1 to 10 | – | – | < 10 | – | > 1000 | < 1000 | – | – | – |
| Cn1ccc(-c2cn([C@H]3C[C@H](O)[C@@H](COc4ccc5ccc(NC6CC6)nc5c4)O3)c3ncnc(N)c23)n1 [I-179] | – | – | 1000 to 10000 | 1 to 10 | < 1000 | – | – | – | – | – | < 10 | 100 to 1000 | – |
| Nc1ncnc2c1c([C@@H]1CCCO1)cn2[C@@H]1O[C@H](COc2ccc3ccc(N4CCC4)nc3c2)[C@@H](O)[C@@H]1F [I-158] | – | – | < 1000 | 1 to 10 | – | – | < 10 | – | – | < 1000 | – | – | – |
| Cn1ccc(-c2cn([C@@H]3O[C@H](COc4ccc5ccc(N6CC(O)C6)nc5c4)[C@@H](O)[C@@H]3F)c3ncnc(N)c23)n1 [I-171] | – | – | 1000 to 10000 | 1 to 10 | 1000 to 10000 | – | – | – | – | – | < 10 | > 1000 | – |
| Cc1coc(-c2cn([C@@H]3O[C@H](COc4ccc5ccc(N6CCC6)nc5c4)[C@@H](O)[C@@H]3F)c3ncnc(N)c23)n1 [I-220] | – | – | < 1000 | 1 to 10 | < 1000 | – | – | – | – | – | < 10 | > 1000 | – |
| Cn1ccc(-c2cn([C@@H]3O[C@H](COc4ccc5ccc(NC6CCC6)nc5c4)[C@@H](O)[C@@H]3F)c3ncnc(N)c23)n1 [I-183] | – | – | < 1000 | < 1 | < 1000 | – | – | – | – | – | < 10 | > 1000 | – |
| Cn1ccc(-c2cn([C@H]3C[C@H](O)[C@@H](COc4ccc5ccc(N6CCC6)nc5c4)O3)c3ncnc(N)c23)n1 [I-164] | – | – | < 1000 | 1 to 10 | < 1000 | – | – | – | – | – | < 10 | > 1000 | – |
| Cn1ccc(-c2cn([C@@H]3C[C@H](COc4ccc5ccc(N6CCC6)nc5c4)[C@@H](O)C3)c3ncnc(N)c23)n1 [I-169, (1S,2R,4R)-4-[4-amino-5-(1-methyl-1H-pyrazol-3-yl)-7H-pyrrolo[2,3-d]pyrimidin-7-yl]-2-({[2-(azetidin-1-yl)quinolin-7-yl]oxy}methyl)cyclopentan-1-ol] | – | – | 1000 to 10000 | – | 1000 to 10000 | – | – | – | – | – | < 10 | > 1000 | – |
| Nc1ncnc2c1ccn2[C@@H]1O[C@H](COc2ccc3ccc(N4CCCC4)nc3c2)[C@@H](O)[C@H]1O [I-75] | – | – | 1000 to 10000 | > 10 | – | – | 10 to 100 | > 1000 | 10 to 100 | – | – | – | – |
| CCc1cc(NC)c2ccc(OC[C@H]3O[C@@H](n4cc(-c5ccn(C)n5)c5c(N)ncnc54)[C@@H](F)[C@@H]3O)cc2n1 [I-232] | – | – | > 10000 | > 10 | – | > 1000 | – | – | – | – | < 10 | 100 to 1000 | – |
| Cn1ccc(-c2cn([C@@H]3C[C@H](CCc4ccc5ccc(N6CCC6)nc5c4)[C@@H](O)C3)c3ncnc(N)c23)n1 [I-205] | – | – | 1000 to 10000 | – | < 1000 | – | – | – | – | – | < 10 | > 1000 | – |
| Nc1ncnc2c1c(-n1cccn1)cn2[C@H]1C[C@H](O)[C@@H](COc2ccc3ccc(N4CCC4)nc3c2)O1 [I-170] | – | – | < 1000 | 1 to 10 | 1000 to 10000 | – | – | – | – | – | < 10 | > 1000 | – |
| CCNc1ccc2ccc(OC[C@H]3O[C@@H](n4ccc5c(N)ncnc54)[C@@H](F)[C@@H]3O)cc2n1 [I-5] | – | – | – | – | – | > 1000 | < 10 | – | 10 to 100 | – | – | – | 1000 to 10000 |
| CNc1ccc2ccc(OC[C@H]3O[C@@H](n4cc([C@H]5CCCO5)c5c(N)ncnc54)[C@@H](F)[C@@H]3O)cc2n1 [I-151] | – | – | 1000 to 10000 | 1 to 10 | – | – | < 10 | – | 100 to 1000 | < 1000 | – | – | – |
